Measured values reported in patent US9199946B2, “Pyrimidinone carboxamide inhibitors of endothelial lipase” (BRISTOL-MYERS SQUIBB COMPANY, priority 2012, dated 2015).
Like-named read-outs stand apart in the source and are kept apart here.

Target: T1, Endothelial lipase (EL) (Homo sapiens, UniProt Q9Y5X9)
T1 construct: HT-1080 cells, which were transformed by RAGE technology (Athersys) to overexpress endogenous EL; endogenous in cells; conditioned medium used as the enzyme source
T1 sequence (Q9Y5X9 21-500): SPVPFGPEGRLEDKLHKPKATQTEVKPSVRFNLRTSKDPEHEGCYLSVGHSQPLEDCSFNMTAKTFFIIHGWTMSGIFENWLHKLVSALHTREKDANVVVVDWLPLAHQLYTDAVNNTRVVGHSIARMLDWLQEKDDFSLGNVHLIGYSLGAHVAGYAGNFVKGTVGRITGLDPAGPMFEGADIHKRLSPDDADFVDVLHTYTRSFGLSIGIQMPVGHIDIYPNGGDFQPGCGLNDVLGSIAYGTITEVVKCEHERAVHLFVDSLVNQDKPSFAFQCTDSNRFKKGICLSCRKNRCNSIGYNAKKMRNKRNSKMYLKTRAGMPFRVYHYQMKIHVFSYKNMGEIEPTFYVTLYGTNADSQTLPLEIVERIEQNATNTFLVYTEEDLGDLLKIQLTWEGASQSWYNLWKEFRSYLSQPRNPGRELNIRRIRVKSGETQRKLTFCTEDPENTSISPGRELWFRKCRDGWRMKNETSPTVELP
Experiment: Endothelial lipase (EL) enzymatic assay with fluorescent substrate A10070 in DMPG vesicles
Type: biochemical
Procedure, shortened: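 EL activity was followed as a fluorescence rate (488/530 nm, reads every 20 s for 10 min, linear slope) on A10070 doped at 0.05 mole fraction into sonicated DMPG vesicles. Compound was first incubated 20 min at 37 °C, pH 8.0 HEPES/CaCl2 buffer, with conditioned media from EL-overexpressing HT-1080 cells.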

[1] = range observed in the EL assay, read-out: EL IC50 values
[2] = conditioned media from HT-1080 cells overexpressing endogenous EL, 20 min preincubation at 37° C., read-out: EL IC50

| SMILES | IC50 [1] [µM] | IC50 [2] [µM] |
| --- | --- | --- |
| Nc1c(C(=O)N[C@@H]2CCc3cc(C(F)(F)F)ccc32)[nH]c(=O)[nH]c1=O [Example 27, (R)-5-amino-2,6-dioxo-N-(5-(trifluoromethyl)-2,3-dihydro-1H-inden-1-yl)-1,2,3,6-tetrahydropyrimidine-4-carboxamide] | ≤ 10 |  |
| COc1ccc2c(c1)CCCC2NC(=O)c1[nH]c(=O)[nH]c(=O)c1N (stereo not shown) [Example 31, 5-amino-N-(6-methoxy-1,2,3,4-tetrahydronaphthalen-1-yl)-2,6-dioxo-1,2,3,6-tetrahydropyrimidine-4-carboxamide] | ≤ 10 |  |
| O=C(N[C@H]1CC[C@@H](c2ccccc2)CC1)c1[nH]c(=O)[nH]c(=O)c1NC1CCCc2ccccc21 (stereo partly drawn) [Example 224, 2,6-dioxo-N-(cis-4-phenylcyclohexyl)-5-(1,2,3,4-tetrahydronaphthalen-1-ylamino)-1,2,3,6-tetrahydropyrimidine-4-carboxamide] | ≤ 10 |  |
| O=C(N[C@@H]1CCc2cc(C(F)(F)F)ccc21)c1[nH]c(=O)[nH]c(=O)c1O [Example 249, (R)-5-hydroxy-2,6-dioxo-N-(5-(trifluoromethyl)-2,3-dihydro-1H-inden-1-yl)-1,2,3,6-tetrahydropyrimidine-4-carboxamide] | ≤ 10 |  |
| Nc1c(C(=O)N[C@H]2CC[C@@H](c3ccccc3)CC2)n(-c2ccc(Cl)c(Cl)c2)c(=O)[nH]c1=O [Example 204, 5-amino-3-(3,4-dichlorophenyl)-2,6 dioxo-N-(cis-4-phenylcyclohexyl)-1,2,3,6-tetrahydropyrimidine-4-carboxamide] | ≤ 10 |  |
| Nc1c(C(=O)N[C@@H]2CCCc3c(OCc4ccccc4)cccc32)[nH]c(=O)[nH]c1=O [Example 82, (R)-5-amino-N-(5-(benzyloxy)-1,2,3,4-tetrahydronaphthalen-1-yl)-2,6-dioxo-1,2,3,6-tetrahydropyrimidine-4-carboxamide] | ≤ 10 |  |
| O=C(N[C@H]1CC[C@@H](c2ccccc2)CC1)c1[nH]c(=O)[nH]c(=O)c1NCCCc1ccccc1 [Example 207, 2,6-dioxo-N-(cis-4-phenylcyclohexyl)-5-(3-phenylpropylamino)-1,2,3,6-tetrahydropyrimidine-4-carboxamide] | ≤ 10 |  |
| Nc1c(C(=O)NC2Cc3ccccc3C2Cc2ccccc2)[nH]c(=O)[nH]c1=O (stereo not shown) [Example 8, 5-amino-N-(1-benzyl-2,3-dihydro-1H-inden-2-yl)-2,6-dioxo-1,2,3,6-tetrahydropyrimidine-4-carboxamide] | ≤ 10 |  |
| Nc1c(C(=O)N[C@@H]2CC[C@H](c3ccc(-c4cnn(CCN5CCOCC5)c4)cc3)C2)[nH]c(=O)[nH]c1=O [Example 164, 5-amino-N-((1R,3S)-3-(4-(1-(2-morpholinoethyl)-1H-pyrazol-4-yl)phenyl)cyclopentyl)-2,6-dioxo-1,2,3,6-tetrahydropyrimidine-4-carboxamide] | ≤ 10 | 0.788 |
| Nc1c(C(=O)N[C@H]2CC[C@@H](C(=O)N[C@@H]3CCCc4c(OCc5ccccc5)cccc43)C2)[nH]c(=O)[nH]c1=O [Example 136, 5-amino-N-((1S,3R)-3-((R)-5-(benzyloxy)-1,2,3,4-tetrahydronaphthalen-1-ylcarbamoyl)cyclopentyl)-2,6-dioxo-1,2,3,6-tetrahydropyrimidine-4-carboxamide] | ≤ 10 | 0.019 |
| Nc1c(C(=O)N[C@H]2CC[C@@H](c3ccccc3)CC2)[nH]c(=O)[nH]c1=O [Example 3, 5-amino-2,6-dioxo-N-(cis-4-phenylcyclohexyl)-1,2,3,6-tetrahydropyrimidine-4-carboxamide] | ≤ 10 |  |
| O=C(N[C@H]1CC[C@@H](c2ccccc2)CC1)c1[nH]c(=O)[nH]c(=O)c1NCc1ccccn1 [Example 225, 2,6-dioxo-N-(cis-4-phenylcyclohexyl)-5-(pyridin-2-ylmethylamino)-1,2,3,6-tetrahydropyrimidine-4-carboxamide] | ≤ 10 | 5.28 |
| CCNc1c(C(=O)N[C@H]2CC[C@@H](c3ccccc3)CC2)[nH]c(=O)[nH]c1=O [Example 229, 5-(ethylamino)-2,6-dioxo-N-(cis-4-phenylcyclohexyl)-1,2,3,6-tetrahydropyrimidine-4-carboxamide] | ≤ 10 |  |
| Nc1c(C(=O)N[C@H]2CC[C@@H](NC(=O)c3cccc(OCc4ccccc4)c3)CC2)[nH]c(=O)[nH]c1=O [Example 122, 5-amino-N-(cis-4-(3-(benzyloxy)benzamido)cyclohexyl)-2,6-dioxo-1,2,3,6-tetrahydropyrimidine-4-carboxamide] | ≤ 10 |  |
| Nc1c(C(=O)N[C@@H]2CCCc3cc(OCC(F)(F)F)ccc32)[nH]c(=O)[nH]c1=O [Example 33, (R)-5-amino-2,6-dioxo-N-(6-(2,2,2-trifluoroethoxy)-1,2,3,4-tetrahydronaphthalen-1-yl)-1,2,3,6-tetrahydropyrimidine-4-carboxamide] | ≤ 10 |  |
| Nc1c(C(=O)NC2CCCc3c2sc2nc[nH]c(=O)c32)[nH]c(=O)[nH]c1=O (stereo not shown) [Example 45, 5-amino-2,6-dioxo-N-(4-oxo-1,4,5,6,7,8-hexahydro[1]benzothieno[2,3-d]pyrimidin-8-yl)-1,2,3,6-tetrahydro-4-pyrimidinecarboxamide] | ≤ 10 | 3.37 |
| Cc1ccc(S(=O)(=O)Nc2ccc(C3CCCC(NC(=O)c4[nH]c(=O)[nH]c(=O)c4N)C3)cc2)cc1 (stereo not shown) [Example 128, 5-amino-N-(3-(4-(4-methylphenylsulfonamido)phenyl)cyclohexyl)-2,6-dioxo-1,2,3,6-tetrahydropyrimidine-4-carboxamide] | ≤ 10 | 0.013 |
| COc1cccc2c1CCCC2NC(=O)c1[nH]c(=O)[nH]c(=O)c1N (single isomer, unassigned; enantiomer a) [Example 198, 5-amino-N-(5-methoxy-1,2,3,4-tetrahydronaphthalen-1-yl)-2,6-dioxo 1,2,3,6-tetrahydropyrimidine-4-carboxamide (Enantiomer A)] | ≤ 10 |  |
| Nc1c(C(=O)NC2CCN(c3ccc(C(F)(F)F)cn3)C2)[nH]c(=O)[nH]c1=O (stereo not shown) [Example 190, 5-amino-2,6-dioxo-N-(1-(5-(trifluoromethyl)pyridin-2-yl)pyrrolidin-3-yl)-1,2,3,6-tetrahydropyrimidine-4-carboxamide] | ≤ 10 | 0.276 |
| NS(=O)(=O)c1ccc(CCNc2c(C(=O)N[C@H]3CC[C@@H](c4ccccc4)CC3)[nH]c(=O)[nH]c2=O)cc1 [Example 226, 2,6-dioxo-N-(cis-4-phenylcyclohexyl)-5-(4-sulfamoylphenethylamino)-1,2,3,6-tetrahydropyrimidine-4-carboxamide] | ≤ 10 |  |
| Nc1c(C(=O)N[C@@H]2CCCc3c2cccc3C(F)(F)F)[nH]c(=O)[nH]c1=O [Example 49, (R)-5-amino-2,6-dioxo-N-(5-(trifluoromethyl)-1,2,3,4-tetrahydronaphthalen-1-yl)-1,2,3,6-tetrahydropyrimidine-4-carboxamide] | ≤ 10 |  |
| O=C(N[C@H]1CCCc2c1cccc2C(F)(F)F)c1[nH]c(=O)[nH]c(=O)c1O [Example 266, (S)-5-hydroxy-2,6-dioxo-N-(5-(trifluoromethyl)-1,2,3,4-tetrahydronaphthalen-1-yl)-1,2,3,6-tetrahydropyrimidine-4-carboxamide] | ≤ 10 |  |
| Nc1c(C(=O)N[C@@H]2CCc3ccccc32)[nH]c(=O)[nH]c1=O [Example 9, (R)-5-amino-N-(2,3-dihydro-1H-inden-1-yl)-2,6-dioxo-1,2,3,6-tetrahydropyrimidine-4-carboxamide] | ≤ 10 |  |
| Nc1c(C(=O)N[C@@H]2CC[C@@H](c3ccccc3)c3ccccc32)[nH]c(=O)[nH]c1=O [Example 20, 5-amino-2,6-dioxo-N-((1R,4S)-4-phenyl-1,2,3,4-tetrahydronaphthalen-1-yl)-1,2,3,6-tetrahydropyrimidine-4-carboxamide] | ≤ 10 |  |
| COCCOc1ccc(C(=O)N[C@H]2CC[C@@H](NC(=O)c3[nH]c(=O)[nH]c(=O)c3N)CC2)cc1 [Example 120, 5-amino-N-(cis-4-(4-(2-methoxyethoxy)benzamido)cyclohexyl)-2,6-dioxo-1,2,3,6-tetrahydropyrimidine-4-carboxamide] | ≤ 10 |  |
| O=C(N[C@H]1CC[C@@H](c2ccccc2)CC1)c1[nH]c(=O)[nH]c(=O)c1NCCO [Example 217, 5-(2-hydroxyethylamino)-2,6-dioxo-N-(cis-4-phenylcyclohexyl)-1,2,3,6-tetrahydropyrimidine-4-carboxamide] | ≤ 10 |  |
| COc1ccc2c(c1)OC(C)CC2NC(=O)c1[nH]c(=O)[nH]c(=O)c1N (stereo not shown) [Example 17, 5-amino-N-(7-methoxy-2-methylchroman-4-yl)-2,6-dioxo-1,2,3,6-tetrahydropyrimidine-4-carboxamide] | ≤ 10 |  |
| O=C(N[C@H]1CC[C@@H](c2ccccc2)CC1)c1[nH]c(=O)[nH]c(=O)c1NCCc1ccccc1Cl [Example 221, 5-(2-chlorophenethylamino)-2,6-dioxo-N-(cis-4-phenylcyclohexyl)-1,2,3,6-tetrahydropyrimidine-4-carboxamide] | ≤ 10 |  |
